Assay results reported in patent US6784165B1, “Treatment of heart rhythm disturbances with N6-substituted-5′-(N-substituted) carboxamidoadenosines” (Aderis Pharmaceuticals, Inc., priority 1999, dated 2004).
Where two headings read alike, the source gives them in different places.

Key:
adenosine A1 receptor [1] = biological target: T1, adenosine A1 receptor (Rattus norvegicus, UniProt P25099); experiment: Negative inotropic response in electrically stimulated rat isolated left atria (isoproterenol-stimulated); design: from tissue; host or cells: whole animal (conscious Sprague-Dawley rats); settings: plateau negative inotropic response, 1 Hz, isoproterenol 10^−8 M
T1 sequence (P25099 1-326): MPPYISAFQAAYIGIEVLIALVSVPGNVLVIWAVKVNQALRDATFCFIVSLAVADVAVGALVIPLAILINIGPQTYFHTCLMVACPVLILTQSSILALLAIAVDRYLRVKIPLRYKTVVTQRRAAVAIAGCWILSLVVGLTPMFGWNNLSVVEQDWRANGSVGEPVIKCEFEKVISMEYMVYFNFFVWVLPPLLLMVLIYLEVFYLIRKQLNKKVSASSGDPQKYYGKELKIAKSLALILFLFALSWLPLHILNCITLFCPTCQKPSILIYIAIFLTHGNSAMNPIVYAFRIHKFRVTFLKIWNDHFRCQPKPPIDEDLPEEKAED
From the text: (§1) Concentration dose-effect curve data were fitted to a sigmoid curve using Graphpad PRIZM™ software to obtain the concentration or dose of test compound that produces 50% of the maximal obtainable response, in vitro EC50 or in vivo ED50 values, for activation of the adenosine A1 receptor. Responses measured to each dose were the plateau negative inotropic response to cumulative additions of test compound in the isolated left atria and the peak bradycardia in response to bolus intravenous injections of test compound in conscious rats. Oral bioavailability was estimated from pharmacodynamic responses using the expression: (Response AUCoral/Response AUCiv)(Doseiv/Doseoral), where Response AUC is the area under the curve for test compound-induced bradycardia over time.
Male Sprague-Dawley rats weighing 200-350 grams were sacrificed and the hearts rapidly removed and placed in a warmed Krebs-Henseleit buffer solution. The left atria were dissected free from the hearts and suspended in 30 mL jacketed isolated organ baths filled with Krebs-Henseleit buffer, oxygenated with 95% O2/5% CO2 and maintained at 37° C. Tissues were connected to a force displacement transducer under a resting tension of 1 gram. Atria were stimulated electrically at 1 Hz, 1 msec duration and supramaximal voltage to produce regular contractions of tissue.
Adenosine A1 agonists were added to the baths at increasing cumulative concentrations until a maximal decrease in the force of contraction was obtained. Because adenosine A1 agonists have only a small direct negative inotropic action in rat atria, it was necessary to stimulate β-adrenergic receptors to produce positive inotropy in order to maximize the negative intropic response and thereby facilitate measurement. Under these conditions, adenosine A1 agonists acting at A1 receptors indirectly reduce the β-adrenergic mediated positive inotropy. Accordingly, the β-adrenergic agonist isoproterenol (10^−8 M) was added to the organ baths approximately 15 minutes before the addition of the adenosine A1 agonist.

adenosine A1 receptor [2] = biological target: T1, adenosine A1 receptor; experiment: Peak bradycardia after bolus intravenous injection in conscious rats; type: in vivo; design: from tissue; host or cells: whole animal (conscious Sprague-Dawley rats); settings: bolus intravenous injections
From the text: as §1
(§2) Male Sprague-Dawley rats were anesthetized with sodium pentobarbital 50 mg/kg i.p., and indwelling catheters were surgically implanted in the carotid artery and jugular vein two days prior to each experiment. During all subsequent experiments, rats were conscious and unrestrained. The carotid artery cannula was attached to a pressure transducer and blood pressure was recorded continuously throughout each experiment using a Grass polygraph. Heart rate was derived from the blood pressure signal using a Grass tachygraph. The measured parameters were allowed from 30 to 90 minutes to stabilize before the administration of test compound.
(§3) Test compounds were administered either by oral gavage using a curved, bulbed oral dosing cannula, or by intravenous administration via the jugular vein indwelling catheter. Rats dosed orally were fasted overnight before dosing, with water available ad libitum. Because the heart rate responses following intravenous administration of test compound rapidly returned to baseline, more than one dose of test compound could be administered to each rat. However, the responses to oral administration of test compounds were of a prolonged duration and therefore only a single dose could be administered to each rat.

[3] = Oral bioavailability estimated from bradycardia AUC oral vs intravenous in conscious rats; type: in vivo, rat; settings: for bioavailability: male, Sprague-Dawley, rat, in vivo
From the text: as §1, §2, §3
A comparison of the area under the bradycardia vs. time curve (AUC) following intravenous administration with the AUC following oral administration was used as a measure of oral bioavailability.

Compound: O=C(NCCO)C1OC(n2cnc3c(NC4CC5CCC4C5)ncnc32)C(O)C1O (stereo not drawn) [H]
- EC50 (adenosine A1 receptor [1]): 3.8 nM
- ED50 (adenosine A1 receptor [2]): 0.0034 µmol/kg
- Oral Bioavailability [3]: 2.3%

Compound: CCNC(=O)[C@H]1O[C@@H](n2cnc3c(NC(CC)CC)ncnc32)[C@H](O)[C@@H]1O [I, N^6-(3-pentyl)-5′-(N-ethyl)carboxamidoadenosine]
- EC50 (adenosine A1 receptor [1]): 7.9 nM
- ED50 (adenosine A1 receptor [2]; rat, read-out: ED50): 0.0079 µmol/kg
- bioavailability [3]: 20%

Compound: O=C(NC1CC1)[C@H]1O[C@@H](n2cnc3c(NC4CCCC4)ncnc32)[C@H](O)[C@@H]1O [C, N^6-cyclopentyl-5′-(N-cyclopropyl)carboxamidoadenosine]
- EC50 (adenosine A1 receptor [1]): 3.8 nM
- ED50 (adenosine A1 receptor [2]; rat, read-out: ED50): 0.0093 µmol/kg
- bioavailability [3]: 38%

Compound: O=C(NCCO)[C@H]1O[C@@H](n2cnc3c(NC4CCCC4)ncnc32)[C@H](O)[C@@H]1O [B]
- EC50 (adenosine A1 receptor [1]): 11.2 nM
- ED50 (adenosine A1 receptor [2]; rat, read-out: ED50): 0.0074 µmol/kg
- bioavailability [3]: 8.4%

Compound: CC(C)(C)NC(=O)[C@H]1O[C@@H](n2cnc3c(NC4CCCC4)ncnc32)[C@H](O)[C@@H]1O [F, N^6-cyclopentyl-5′-(N-t-butyl)carboxamidoadenosine]
- EC50 (adenosine A1 receptor [1]): 72.4 nM
- ED50 (adenosine A1 receptor [2]; rat, read-out: ED50): 0.363 µmol/kg
- bioavailability [3]: 34%

Compound: CCCNC(=O)[C@H]1O[C@@H](n2cnc3c(NC4CCCC4)ncnc32)[C@H](O)[C@@H]1O [G]
- EC50 (adenosine A1 receptor [1]): 25.1 nM
- ED50 (adenosine A1 receptor [2]; rat, read-out: ED50): 0.0323 µmol/kg
- bioavailability [3]: 14%

Compound: CCC(CC)Nc1ncnc2c1ncn2[C@@H]1O[C@H](C(=O)NCCO)[C@@H](O)[C@H]1O [J]
- EC50 (adenosine A1 receptor [1]): 21.8 nM
- ED50 (adenosine A1 receptor [2]; rat, read-out: ED50): 0.0083 µmol/kg
- bioavailability [3]: 9.9%

Compound: CC(C)NC(=O)[C@H]1O[C@@H](n2cnc3c(NC4CCCC4)ncnc32)[C@H](O)[C@@H]1O [E]
- EC50 (adenosine A1 receptor [1]): 11 nM
- ED50 (adenosine A1 receptor [2]; rat, read-out: ED50): 0.0034 µmol/kg
- bioavailability [3]: 28%

Compound: CNC(=O)[C@H]1O[C@@H](n2cnc3c(NC4CCCC4)ncnc32)[C@H](O)[C@@H]1O [D, N^6-cyclopentyl-5′-(N-methyl)carboxamidoadenosine]
- EC50 (adenosine A1 receptor [1]): 19.1 nM
- ED50 (adenosine A1 receptor [2]; rat, read-out: ED50): 0.0039 µmol/kg
- bioavailability [3]: 20%
